Key:
SARS-CoV-2 spike protein = SARS-CoV-2 spike protein (Severe acute respiratory syndrome coronavirus 2, UniProt P0DTC2); type: binding
IgG = test: Model protein (IgG) capture on nanocoated facemask pieces, Gel-Code protein staining dye; type: binding; details: FIG. 7, IgG incubated 30 minutes, PBS wash, colour change, relative to uncoated facemask
Source text: FIG. 7 depicts the relative binding of a model protein to pieces of facemasks coated with a different one of three bifunctional silane chemicals as well as to uncoated had hydrophobic controls. With reference to FIG. 7, pairs of pieces of standard facemasks (Machimpex, catalogue #1005-544-988) were nanocoated with one of the various chemicals. One pair, shown at the far left, was left uncoated. […] IgG was used as a model for protein capture as it behaved similar to the full-length coronavirus spike protein in plate-binding assays and is likely to have similar activity to that of bacterial coat proteins. The IgG was applied to the facemask fabric and incubated for 30 minutes prior to washing in phosphate buffered saline (PBS). Detection of the captured protein after washing was performed by applying 200 μl Gel-Code protein staining dye (Thermo Fisher Scientific, catalogue #24590) directly to the materials and incubating for one hour. Color change indicating protein capture was documented by photography.

Human IgG = details: FIGS. 4A and 4B; all concentration levels that included IgG, starting at 1 μg/ml; compared with high-protein-binding ELISA plates

CO[Si](C)(CCCNCCCN(C)C)OC [CCH699020, 3-(N,N-dimethylaminopropyl)aminopropylmethyldimethoxysilane]
relative binding of SARS-CoV-2 spike glycoprotein applied at different concentrations (SARS-CoV-2 spike protein): control high-protein-binding ELISA plate significantly outperformed the chemical coating

CCO[Si](CCCNC(=O)/C=C\C(=O)O)(OCC)OCC [CCH8845, triethoxysilylpropylmaleamic acid]
overall capability of binding the coronavirus spike protein (SARS-CoV-2 spike protein): bind about equally well as CCH9021, CCH4502, and CCH1053

CCO[Si](CCCNCCN)(OCC)OCC [CCH9021, N-(2-aminoethyl)-3-aminopropyltriethoxysilane]
relative binding of SARS-CoV-2 spike glycoprotein (SARS-CoV-2 spike protein): slightly underperformed the high-protein-binding ELISA plate | capture of model protein (IgG) onto facemask (IgG): efficiently captured the protein onto facemask relative to the uncoated facemask | capture of model protein (IgG) onto facemask (IgG; listed as NCT9021): appears to have captured more efficiently

CCO[Si](CCCNCCN)(OCC)OCC [N-(2-aminoethyl)-3-aminopropyltriethoxysilane]
relative binding of IgG applied at different concentrations (Human IgG): significantly outperformed the high-protein-binding ELISA plates
